{"source": "patent US20190133968A1", "about": "“Applications of benzophenones in preparation of drug” (SHANXI MEDICAL UNIVERSITY, priority 2016, published 2019)", "key": {"[1]": {"system": "Escherichia coli ATCC25922 standard strain", "assay": "urinary and renal bacterial culture of acute pyelonephritis rats", "type": "in vivo, SD rats", "details": "norfloxacin 66.7 mg/kg, gavage, 10 days", "procedure": "Ninety male SD rats having a weight of 180-220 g are selected, wherein: ten rats are selected as a sham-operated group (only being processed with ligation, without injecting with Escherichia coli), and the remaining rats are injected with Escherichia coli ATCC25922 standard strain having a concentration of 10^8/ml according to the method (disclosed in the Chinese Journal of Laboratory Animal Science, 1998, 8(1): pages 31-34) for preparing the acute pyelonephritis model rats.\nAfter three days, urine of the rats is collected for bacterial culture, and the growth situation of the bacteria is observed. If the result is positive, the model rats are successively established; the unqualified rats are excluded, and the operation is made again for complementing the rats. The successively established model rats are randomly divided into the model group, the norfloxacin group (66.7 mg/kg), the LM49 solid dispersion low-dose group (with the drug concentration of 3 mg/kg), the LM49 solid dispersion medium-dose group (with the drug concentration of 9 mg/kg), the LM49 solid dispersion high-dose group (with the drug concentration of 27 mg/kg), the A8 solid dispersion low-dose group (with the drug concentration of 3 mg/kg), the A8 solid dispersion medium-dose group (with the drug concentration of 9 mg/kg), and the A8 solid dispersion high-dose group (with the drug concentration of 27 mg/kg).\nThe rats of the sham-operated group and the model group are administrated with the normal saline of same volume by gavage, and the rats of the other groups are respectively administrated with the drugs of the corresponding dose, once a day for consecutive ten days.\nAfter finishing administration, urine of the rats of all groups is collected (for observing the bacterial growth situation). The abdominal aorta blood of the rats is drawn (for measuring the blood routine, CD4/CD8, urine creatinine and serum creatinine in the serum; and for measuring contents of IL-1α, IL-1β, IL-6, IL-10 and MCP-1 in the serum with the ELISA method). Two kidneys of each rat are cut (wherein a part is homogenated for bacterial culture, and the other part is used for observing the pathomorphology change)."}, "chronic nephritis rats": {"system": "chronic nephritis rats", "assay": "chronic nephritis rat model (passive Heymann nephritis)", "type": "in vivo, SD rats", "details": "dexamethasone 0.1 mg/kg, gavage; for IL-1α / IL-1β / IL-6 / IL-10 / Scr: serum", "procedure": "(§1) The solid dispersions are prepared through a solvent method, comprising steps of: respectively precisely weighing LM49, PVPK30 and tween80 with a weight ratio of 1:5:1, and A8, PVPK30 and tween80 with a weight ratio of 1:4:1; dissolving with appropriate absolute ethyl alcohol, continuously stirring, and uniformly mixing; placing on the water bath at 60° C., evaporating and removing the absolute ethyl alcohol, and obtaining a viscous material; placing in the freezer at −20° C., and freezing for 2 hours; taking out from the freezer, then placing in the vacuum drying oven, and drying for 24 hours; after becoming embrittlement, smashing and sieving with a sieve of 80 meshes, and then placing in the dryer for storage.\nThe passive Heymann nephritis is the classic model for researching the human chronic nephrosis. Thus, the present invention researches the effects of the two disclosed compounds on preventing the chronic nephritis with the model.\nNinety male SD rats having a weight of 180-220 g are selected, wherein: ten rats are selected as a blank group, and the remaining rats are used for preparing the rat Heymann nephritis models according to the method (disclosed in Journal of Proteomics, 2012, 75(3): pages 3866-3876). The successively established model rats are randomly divided into the model group, the positive control group (dexamethasone with a concentration of 0.1 mg/kg), the LM49 solid dispersion low-dose group (with the drug concentration of 3 mg/kg), the LM49 solid dispersion medium-dose group (with the drug concentration of 9 mg/kg), the LM49 solid dispersion high-dose group (with the drug concentration of 27 mg/kg), the A8 solid dispersion low-dose group (with the drug concentration of 3 mg/kg), the A8 solid dispersion medium-dose group (with the drug concentration of 9 mg/kg), and the A8 solid dispersion high-dose group (with the drug concentration of 27 mg/kg).\nThe rats of the blank group and the model group are administrated with the normal saline of same volume, and the rats of the other groups are respectively administrated with the drugs of the corresponding dose, by gavage, every day from model establishment for four weeks.\nThe blood of the rats of all groups is drawn at the second week and the fourth week from model establishment and 24-hour urine thereof is collected, for respectively measuring the contents of the urinary albumin, serum creatinine (Scr) in the serum, BUN, IL-1α, IL-1β, IL-6 and IL-10.\nThe data is represented in mean±(standard deviation) (x±s) and processed with the SPSS 19.0 statistical software. The one-way analysis of variance (ANOVA) is adopted for comparison among the groups, and then the LSD-Test is adopted for pairwise comparison. The differences of P<0.05 and P<0.01 are statistically significant."}, "DN rats": {"system": "DN rats", "assay": "type II diabetic nephropathy (DN) rat model (high-sugar high-fat diet + streptozocin)", "type": "in vivo, SD (Sprague Dawley) rats", "details": "DN rats, captopril 15 mg/kg, gavage, 6 weeks", "procedure": "as §1\nThe healthy adult male SD rats (having a weight of 180-220 g) are fed with the high-sugar and high-fat diet for 4 weeks; the rats are fasting overnight; and streptozocin (STZ) of 40 mg/kg is intraperitoneally injected into the rats. The rats of normal control group are injected with the sodium citrate buffer of same volume; 72 hours later, the rats are fasting for 12 hours. […] During the administration period, the successfully established model rats are still fed with the high-sugar and high-fat diet, while the rats of the normal control group are fed with the normal diet.\nAfter administration for 6 weeks, 6-hour urine of the rats is collected with the metabolism cage.\nThe rats are fasting overnight and anesthetized intraperitoneally, then the abdominal aorta blood thereof is drawn for measuring the related indexes. The two kidneys of each rat are washed with the normal saline; weights of the kidneys are recorded; and the kidney coefficient (weights of two kidneys/body weight) is calculated. The renal tissues (comprising the glomerulus and renal tubules) at the same part of the left kidney are cut lengthwise and immersed in the 10% neutral formalin for pathomorphology analysis, and the other parts of the left kidney are used for biochemical index measurement; the right kidney is used for mechanism research and stored in the freezer at −80° C.\nAfter successfully establishing the model rats, expect the normal control group (ten rats), the remaining rats are randomly divided into eight groups, wherein each group has twelve rats. The eight groups are respectively the model group, the LM49 solid dispersion low-dose group (with the drug concentration of 3 mg/kg), the LM49 solid dispersion medium-dose group (with the drug concentration of 9 mg/kg), the LM49 solid dispersion high-dose group (with the drug concentration of 27 mg/kg), the A8 solid dispersion low-dose group (with the drug concentration of 3 mg/kg), the A8 solid dispersion medium-dose group (with the drug concentration of 9 mg/kg), the A8 solid dispersion high-dose group (with the drug concentration of 27 mg/kg), and the captopril control group (with the drug concentration of 15 mg/kg).\nAdministration Way: By Gavage.\nThe rats of the normal control group and the model group are administrated with the normal saline of 1.0 ml/100 g; the rats of the positive control group, the LM49 solid dispersion high-dose, medium-dose and low-dose groups and the A8 solid dispersion high-dose, medium-dose and low-dose groups are respectively administrated with the drugs of different concentrations, and the administration volume is 1.0 ml/100 g.\nThe solid dispersions are dissolved by the normal saline; and the rats of the positive control group are administrated with the 0.5% CMC-Na (sodium carboxymethyl cellulose) suspension.\nThe rats are administrated seven days a week, for totally six weeks.\nThe IBM SPSS Statistics 20 software is used for data processing, and the data is represented in x±s. The one-way analysis of variance (ANOVA) is adopted for comparison among the groups. According to the homogeneity test results of variance, if the variance is equal, the LSD (least significant difference) test is adopted; if the variance is unequal, the Dunnett's T3 test is adopted. […]"}}}
{"compound": "CCn1cc(C(=O)O)c(=O)c2cc(F)c(N3CCNCC3)cc21", "note": "[Norfloxacin, norfloxacin, reference compound]", "values": [{"measurement": "Renal bacterial culture score", "setting": "[1]; mean score, scale 1-4 of Table 10 (colony number <10, >10, >100, >1000)", "value": "1.2 ± 0.42^ΔΔ"}, {"measurement": "Urinary bacterial A value (OD600 nm)", "setting": "[1]; urine culture", "value": "0.254 ± 0.082^ΔΔ"}]}
{"compound": "C[C@@H]1C[C@H]2[C@@H]3CCC4=CC(=O)C=C[C@]4(C)[C@@]3(F)[C@@H](O)C[C@]2(C)[C@@]1(O)C(=O)CO", "note": "[Dexamethasone, dexamethasone, reference compound]", "values": [{"measurement": "24-hour urinary protein quantitation", "setting": "chronic nephritis rats; Fourth week", "value": "19.99 ± 3.5^ΔΔ mg/24 h"}, {"measurement": "24-hour urinary protein quantitation", "setting": "chronic nephritis rats; Second week", "value": "20.87 ± 4.4^Δ mg/24 h"}, {"measurement": "IL-1α", "setting": "chronic nephritis rats; Fourth week", "value": "9.33 ± 4.22^Δ pg/ml"}, {"measurement": "IL-1β", "setting": "chronic nephritis rats; Fourth week", "value": "163.44 ± 59.31^Δ pg/ml"}, {"measurement": "IL-6", "setting": "chronic nephritis rats; Fourth week", "value": "61.31 ± 25.66^ΔΔ pg/ml"}, {"measurement": "IL-10", "setting": "chronic nephritis rats; Fourth week", "value": "29.44 ± 59.31^ΔΔ pg/ml"}, {"measurement": "Scr", "setting": "chronic nephritis rats; Fourth week", "value": "44.32 ± 13.3", "unit": "µmol/L"}, {"measurement": "IL-1α", "setting": "chronic nephritis rats; Second week", "value": "10.47 ± 2.45^Δ pg/ml"}, {"measurement": "IL-1β", "setting": "chronic nephritis rats; Second week", "value": "184.55 ± 57.22^Δ pg/ml"}, {"measurement": "IL-6", "setting": "chronic nephritis rats; Second week", "value": "87.01 ± 31.44^ΔΔ pg/ml"}, {"measurement": "IL-10", "setting": "chronic nephritis rats; Second week", "value": "51.09 ± 7.55", "unit": "pg/mL"}, {"measurement": "Scr", "setting": "chronic nephritis rats; Second week", "value": "46.22 ± 10.4", "unit": "µmol/L"}]}
{"compound": "C[C@H](CS)C(=O)N1CCC[C@H]1C(=O)O", "note": "[captopril, reference compound]", "values": [{"measurement": "BUN", "setting": "DN rats", "value": "10.91 ± 1.15", "unit": "mmol/L"}, {"measurement": "CREA", "setting": "DN rats", "value": "52.15 ± 3.40", "unit": "µmol/L"}, {"measurement": "Glycated hemoglobin", "setting": "DN rats", "value": "8.88 ± 0.55", "unit": "%"}, {"measurement": "Urinary protein", "setting": "DN rats; 6-hour urine", "value": "5.93 ± 1.59^□□ mg/6 h"}, {"measurement": "mALB (microalbumin in urine)", "setting": "DN rats; 6-hour urine", "value": "76.69 ± 7.69^□□ μg/6 h"}, {"measurement": "ICAM-1", "setting": "DN rats; renal tissues", "value": "246.36 ± 49.25", "unit": "pg/mgprog"}, {"measurement": "IL-1β", "setting": "DN rats; renal tissues", "value": "102.32 ± 22.70", "unit": "pg/mgprog"}, {"measurement": "IL-6", "setting": "DN rats; renal tissues", "value": "107.50 ± 20.22^□□ pg/mgprog"}, {"measurement": "MDA", "setting": "DN rats; renal tissues", "value": "1.04 ± 0.24", "unit": "nmol/mgprog"}, {"measurement": "NF-κB", "setting": "DN rats; renal tissues", "value": "174.49 ± 45.87^□□ pg/mgprog"}, {"measurement": "SOD", "setting": "DN rats; renal tissues", "value": "4.42 ± 0.94", "unit": "U/mgprog"}, {"measurement": "T-AOC", "setting": "DN rats; renal tissues", "value": "1.48 ± 0.41", "unit": "U/mgprog"}, {"measurement": "TGF-β1", "setting": "DN rats; renal tissues", "value": "36.72 ± 11.42^□□ pg/mgprot"}, {"measurement": "TNF-α", "setting": "DN rats; renal tissues", "value": "292.79 ± 81.62^□ pg/mgprog"}, {"measurement": "VCAM-1", "setting": "DN rats; renal tissues", "value": "23.79 ± 3.50", "unit": "pg/mgprog"}, {"measurement": "Glucose (GLU)", "setting": "DN rats; serum", "value": "16.66 ± 4.34^□□ mmol/L"}, {"measurement": "HDL-C", "setting": "DN rats; serum", "value": "1.19 ± 0.35", "unit": "mmol/L"}, {"measurement": "LDL-C", "setting": "DN rats; serum", "value": "1.80 ± 0.27^□□ mmol/L"}, {"measurement": "TC", "setting": "DN rats; serum", "value": "3.06 ± 0.43^□□ mmol/L"}, {"measurement": "TG", "setting": "DN rats; serum", "value": "0.37 ± 0.09^□□ mmol/L"}, {"measurement": "UA", "setting": "DN rats; serum", "value": "49.00 ± 3.24^□□ μmol/L"}, {"measurement": "Kidney coefficient", "setting": "DN rats; weights of two kidneys/body weight", "value": "1.02 ± 0.06", "unit": "%"}]}
